We go through two compounds from patent US20250353835A1, “N-TETRAZOLYL ARYL UREA-BASED DERIVATIVES, PREPARATION METHOD THEREFOR, AND USE THEREOF” (Hangzhou Yirui Pharmaceutical Technology Co., Ltd, priority 2022, published 2025).

SMILES strings stand for the structures. Like-named read-outs stand apart in the source and are kept apart here.

Series [1] relates to rat model of diabetic retinopathy. Description: Rat model of diabetic retinopathy (STZ). In kind it is in vivo, Wistar rats. Conditions: for retinal leukocyte stasis, Leukocyte count: Concanavalin A/FITC, 14 days after intravitreal injection, compounds 0.25%, dexamethasone 0.1%; for number of leukocyte stasis in the retina (fluorescent staining, FIG. 8; in words) / retinal vascular penetration in rats (fluorescent staining, FIG. 6; in words): intraocular injection, versus model group. On the procedure:
3.1 Laboratory animals: SPF-grade male Wistar rats, weighed 180-220 g.
3.3 Animal modeling and grouping: After one week of adaptive feeding, 134 male Wistar rats (weighed 220-260 g) were administered 65 mg/kg of STZ by one-time intraperitoneal injection to prepare a rat model of type I diabetic. The rats were fasting but water was allowable overnight for 15 h. The formulated STZ solution was intraperitoneally injected according to body weight. After 1 h, the diet was resumed and blood glucose was measured at 72 h. The successfully modeled diabetic rats (120 rats) were selected for continued feeding, and randomly divided into the following 6 groups according to blood glucose (20 rats per group), plus a group of normal rats with no STZ injected as a negative control group.
3.4 Administration: The rats continued to be fed until blood glucose was measured once before administration. After blood glucose reached the standard, drugs were intravitreally injected, and indexs were subsequently tested after 14 days. Blood glucose was measured once before sampling.
3.5 Evans blue staining method (7 groups, 6 rats per group): Evans blue was intravenously injected. 2 hours later, normal saline was perfused into the left ventricle. The retina was taken to compare between the stained area and the unstained area to detect retinal vascular permeability.
3.6 Retinal leukocyte stasis detection method (7 groups, 6 rats per group): PBS was perfused into the left ventricle for 1 min to remove red blood cells and other substances. Concanavalin A (FITC (Sigma, C7642) was perfused (20 μg/ml in PBS, 5 mg/kg) to mark adherent leukocytes. 4% PFA was perfused for 4 min for fixation. 1% Albumin (Sigma, A6414) (in PBS) was perfused for 1 min, and then PBS was perfused for 2 min. The retina was taken for retinal wholemount. Thereafter, the stasis of leukocytes on the vascular endothelium was observed under a fluorescence microscope. […]

Series [2] is described as follows: Pharmacokinetics in vivo in rats. The following applies: for clearance / half-life / Vd / AUC / Cmax / bioavailability: SD, rat, plasma; for Vd: read-out: Apparent volume of distribution (Vss); for AUC: read-out: Area under the curve of plasma concentration-time (AUC); for Cmax: read-out: Peak concentration (Cmax). Further details: species or system SD rats. Here is the method: 1. […] At different time points after administration, blood samples were collected into EDTA blood sample collection tubes. Plasma was separated by centrifugation and stored at −20° C. for the analysis afterwards.
2. Handling of blood samples and LC-MS/MS analysis: the standard curve and formulation and processing of quality control sample: The compound stock solution was diluted with 50% methanol in water to form a standard curve working solution containing each compound at a concentration of 40-20000 ng/mL and a quality control working solution of 120, 1200, and 16000 ng/mL. 47.5 μL of blank rat plasma were respectively taken, and added into 2.50 μL of standard curve working solution or the quality control working solution, to formulate the standard curve samples containing the compound at a concentration of 2.00-1000.00 ng/mL and the quality control samples having a concentration of […] and 800.00 ng/mL. 400 μL of acetonitrile (containing 5 ng/mL of verapamil as an internal standard) was added respectively. The samples were vortexed for 3 min, centrifuged at 20000 rcf, 4° C. for 15 min. The supernatant was taken for LC-MS/MS analysis.
3. Treatment of the compound blood samples: 5 μL of plasma sample was taken, to which 95 μL of blank rat plasma was added, and 800 μL of acetonitrile (containing 5 ng/mL of verapamil as an internal standard) was added. The samples were vortexed for 3 min, centrifuged at 15000 rcf, 4° C. for 10 min. The supernatant was taken for LC-MS/MS analysis (chromatographic column: ACQUITY UPLC® BEH C18 2.1×50 mm 1.7 μm; mobile phase A: 0.1% formic acid in water; mobile phase B: acetonitrile; flow rate: […]).
4. Analysis of the results: pharmacokinetic parameters were fit and calculated by WinNonlin software using statistical […] method, mainly including kinetic parameters Tmax, t1/2, Cmax, AUC0-t, AUC0∞, Cl, Vd, F, etc. The pharmacokinetic data were calculated and processed using Microsoft Excel, such as mean and standard deviation.

Series [3] in a line: Intraocular and retinal drug concentration in rats after eye drops (HPLC). In kind it is in vivo. The following applies: both sexes, SD, rat, topical, 10 μL of 2% solution per eye, twice a day for 7 days, 2% eye drops twice a day; for concentration at 1 h after the second eye drop on Day 7: 1 h after administration. The text has this: 2.1 Experimental aminals: SPF grade male SD rats, weighed 180-200 g, were used and adaptively fed for one week.
2.2 Drugs and reagents: Compound 71 and Compound 8; sodium chloride injection (Guangxi Yuyuan Pharmaceutical Co., Ltd.); sterile filter having 0.22 μm pore size (Millex).
2.3 Experimental animal grouping: the animals were randomly divided into 3 groups (6 rats per group) of a negative control group (normal saline), a Compound 71 group and a Compound 8 group.
2.4 Administration method and sampling: 2% Compound (10 μl) dissolved in normal saline (after filtration) was dropped into the surface of each rat's eye with a pipette for 10 s. The eye drop was applied twice a day for a total of 7 days. Samples were taken at 1 and 16 hours after the second administration on Day 7 of administration to determine the ocular distribution concentration of the drug.
The first batch of samples: 1 hour after the second eye drop on Day 7: 3 rats (2 males and 1 female) were taken from each group. The bulbus oculi were removed, and were thoroughly rinsed for 3 times with normal saline using a pipette. The washing solution was quickly dried with a qualitative filter paper. The cornea, vitreous body and retina were separated under a stereomicroscope, and frozen at −80° C. for subsequent measurement.
The second batch of samples: On the morning of Day 8, i.e., at 16 hours after the second eye drop on Day 7: the remaining 3 rats (1 male and 2 females) were taken from each group. The bulbus oculi were removed, and were thoroughly rinsed for 3 times with normal saline using a pipette. The washing solution was quickly dried with a qualitative filter paper. The cornea, vitreous body and retina were separated under a stereomicroscope, and frozen at −80° C. for subsequent detection.
2.7.3 Results of HPLC measurement of drug content in eye tissue: Under the selected chromatographic conditions for analysis, drug impurities were well separated. The chromatograms for a sample of standard solution, a sample of blank homogenate, a sample of blank homogenate added with Compound 71 or Compound 8, and a sample of retinal homogenate samples were compared. […] Under the selected HPLC measurement conditions, the average recovery rates for two compounds under test were both above 90%. […] The precision can meet the measurement standard. As shown by the accuracy results, the accuracy for all of the high, medium and low concentration retinal spiked quality control samples (QC) within the drug curve range was higher than 95%.

Where [4] appears, read: 3 mg/kg oral administration in rats (Table 2A).
Where [5] appears, read: 3 mg/kg intravenous injection in rats.
[6] abbreviates: cornea, read-out: Content of test compound in Cornea.
Setting [7] is: cornea, 16 h after administration, read-out: Content of test compound in Cornea.
Where [8] appears, read: retina, read-out: Content of test compound in Retina.
Where [9] appears, read: retina, 16 h after administration, read-out: Content of test compound in Retina.
[10] abbreviates: vitreous body, read-out: Content of test compound in Vitreous body.
The mark [11] stands for this setting: vitreous body, 16 hours after administration, read-out: Content of test compound in Vitreous body.

With `CCOc1ccc(-c2c(F)cc(NC(=O)N3CCC(C(C)(C)C)CC3)cc2-c2nn[nH]n2)cn1` [Compound 8, 4-(tert-butyl)-N-(4-(6-ethoxypyrid-3-yl)-3-fluoro-5-(2H-tetrazol-5-yl)phenyl)piperidine-1-carboxamide], in series [1], the “retinal leukocyte stasis, Leukocyte count” value was determined as 5.32 ± 1.38; the “number of leukocyte stasis in the retina (fluorescent staining, FIG. 8; in words)” value was “significantly reduced”; the “retinal vascular penetration in rats (fluorescent staining, FIG. 6; in words)” value was “significantly reduced”. Also, in series [2] (setting [4]), the “Peak time” value came out at 0.78 h; the bioavailability (commonly the share of a dose that reaches the circulation, judged against a reference dose that is usually intravenous) was 6.1%; the half-life (commonly how long it takes for the measured level to halve) was 3.37 h; the AUC came to 3130 ng·h/mL. Further, the Cmax in series [2] (setting [4]) amounted to 1390 ng/mL. Further, in series [2] (setting [5]), the clearance (commonly a measure of how efficiently the substance is removed, as volume per time) is 9.87 mL/min/kg; the half-life was 0.56 h; the Vd was found to be 0.328 L/kg; the AUC was 5090 ng·h/mL. Moreover, in series [2] (setting [5]), the Cmax was 16400 ng/mL. The concentration at 1 h after the second eye drop on Day 7 in series [3] (setting [6]) came out at 101000 ± 28200 ng/g. Also, the concentration at 16 h after the second eye drop on Day 7 in series [3] (setting [7]) stood at 40700 ± 18800 ng/g. In series [3] (setting [8]), the concentration at 1 h after the second eye drop on Day 7 was determined as 55000 ± 6910 ng/g. For the same compound, in series [3] (setting [9]), the concentration at 16 h after the second eye drop on Day 7 stood at 15800 ± 8410 ng/g. Also, in series [3] (setting [10]), the concentration at 1 h after the second eye drop on Day 7 was 18200 ± 4650 ng/g. In series [3] (setting [11]), the concentration at 16 h after the second eye drop on Day 7 is 10100 ± 2670 ng/g.

Regarding `CCOc1ccc(-c2ccc(NC(=O)N[C@H]3CC[C@H](C)CC3)cc2-c2nn[nH]n2)cn1` [Compound 71, 1-(4-(6-ethoxypyrid-3-yl)-3-(2H-tetrazol-5-yl)phenyl)-3-((trans)-4-methylcyclohexyl)urea], in series [1], the “retinal leukocyte stasis, Leukocyte count” value amounted to 5.22 ± 1.13; the “number of leukocyte stasis in the retina (fluorescent staining, FIG. 8; in words)” value is on record as “significantly reduced”; the “retinal vascular penetration in rats (fluorescent staining, FIG. 6; in words)” value was “significantly reduced”. In series [2] (setting [4]), the “Peak time” value was determined as 2.72 h, the bioavailability stood at 3.6%, the half-life is 3.63 h and the AUC stood at 7480 ng·h/mL. Further, the Cmax in series [2] (setting [4]) amounted to 914 ng/mL. In series [2] (setting [5]), the clearance was 2.42 mL/min/kg, the half-life is 0.93 h, the Vd was determined as 0.156 L/kg and the AUC turned out to be 20700 ng·h/mL. In addition, the Cmax in series [2] (setting [5]) worked out at 37500 ng/mL. For the same compound, the concentration at 1 h after the second eye drop on Day 7 in series [3] (setting [6]) stood at 93100 ± 16900 ng/g. Also, the concentration at 16 h after the second eye drop on Day 7 in series [3] (setting [7]) worked out at 43500 ± 6590 ng/g. Moreover, the concentration at 1 h after the second eye drop on Day 7 in series [3] (setting [8]) came out at 64800 ± 18300 ng/g. The concentration at 16 h after the second eye drop on Day 7 in series [3] (setting [9]) amounted to 6070 ± 3060 ng/g. Moreover, the concentration at 1 h after the second eye drop on Day 7 in series [3] (setting [10]) worked out at 24200 ± 7070 ng/g. Also, the concentration at 16 h after the second eye drop on Day 7 in series [3] (setting [11]) was 12700 ± 3490 ng/g.
